Measurements from patent US8415469B2, “Compounds and methods for kinase modulation, and indications therefor” (Plexxikon Inc., priority 2005, dated 2013).

Assays:
Assay type in all cases: biochemical
Kdr = target: T1, Kdr (Homo sapiens, UniProt P35968); experiment: Z'-Lyte FRET kinase assay (Invitrogen), Kdr; details: read-out: IC50, activity toward kinase Kdr
T1 construct: purchased Invitrogen (assay run by Invitrogen)

MAPKAPK2 = target: T2, MAPKAPK2 (Homo sapiens, UniProt P49137); experiment: Z'-Lyte FRET kinase assay (Invitrogen), MAPKAPK2; details: read-out: IC50, activity toward kinase MAPKAPK2
T2 construct: purchased Invitrogen (assay run by Invitrogen)
T2 sequence (P49137 whole entry): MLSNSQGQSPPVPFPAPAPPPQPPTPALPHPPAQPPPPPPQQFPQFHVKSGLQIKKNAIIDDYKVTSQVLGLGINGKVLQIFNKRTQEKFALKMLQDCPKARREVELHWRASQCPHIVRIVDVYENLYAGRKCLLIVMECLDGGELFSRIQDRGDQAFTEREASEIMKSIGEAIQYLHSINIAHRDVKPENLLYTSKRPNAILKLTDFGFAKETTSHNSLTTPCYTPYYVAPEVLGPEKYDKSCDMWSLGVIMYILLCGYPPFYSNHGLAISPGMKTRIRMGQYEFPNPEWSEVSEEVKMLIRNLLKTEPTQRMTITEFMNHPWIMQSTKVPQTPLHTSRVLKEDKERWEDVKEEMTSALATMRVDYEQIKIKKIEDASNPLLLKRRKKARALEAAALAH
Excerpt: The effect of potential modulators of kinase activity can be measured in a variety of different assays known in the art. For example, direct radiometric, indirect FRET or AlphaScreen assays may be used to assess the level of phosphorylation of a substrate in the presence of test compounds in order to determine the inhibitory affect of the compound on the kinase. Invitrogen (Carlsbad, Calif.) uses a FRET based assay for Btk, EGFR, EphB2, Flt3, lrak4, Kdr, MAP2K1, MAPKAPK2, PDGFRB, PKC theta, Stk6 and Yes. For these assays, compounds of the invention were screened by Invitrogen using Z′-Lyte™ kinase assay.
Briefly, the Invitrogen kinase assay involves use of a specific peptide substrate optimized for each kinase, containing a fluorophore at each end that make up the FRET pair. The peptide sensitivity to proteolytic cleavage depends on phosphorylation of the peptide. Non-phosphorylated peptide is cleaved by a protease while peptide phosphorylated by the kinase is not cleaved. Cleavage of the peptide disrupts the FRET between the donor (coumarin) and acceptor (fluorescein) fluorophores, resulting in an increase in the ratio of donor emission to acceptor emission. The emission ratio of coumarin to fluorescein is used to assess the reaction progress. The extent of phosphorylation is determined from the emission ratio, which is low when the kinase is active (phosphorylated peptide is not cleaved, FRET pair connected) or higher for inhibited kinase (non-phosphorylated peptide is cleaved, FRET pair separated). Thus, the assay involves a kinase reaction in the presence of varying concentrations of a given compound, a development reaction with site specific protease, and detection of the fluorescent emission ratio of coumarin and fluorscein. […] Reaction conditions for each kinase are determined to provide optimal reaction times, incubation temperature, kinase and ATP concentrations. Test samples are made up in 1× kinase buffer (50 mM HEPES pH 7.5, 50 mM MgCl2, 5 mM EGTA, 0.05% BRIJ-35) and compound at desired concentration prepared in DMSO such that the final DMSO is 1%. […] Typically, assay plates are prepared to 10 μl final volume per sample, adding 2.5 μl of compound at 4× the desired concentration in 4% DMSO (serial dilution of compound provides concentration curve), 5 μl of the desired kinase mixed with Z′-LYTE™ peptide substrate (2× in 2× kinase buffer, final peptide at 2 μM), and 2.5 μl of 4×ATP solution. All kinase except for MAP2K1 were at 10 μM ATP in the kinase reaction, while MAP2K1 was at 100 μM. Samples are mixed and the kinase reaction is incubated 1 hour at room temperature, after which 5 μl of development solution is added and mixed. After incubation for another 1 hour at room temperature, 5 μl of stop reagent is added to each sample and mixed. The fluorescence signals are measured to determine the emission ratio.

Stk6 = target: T3, Stk6 (Homo sapiens, UniProt O14965); experiment: Z'-Lyte FRET kinase assay (Invitrogen), Stk6; details: read-out: IC50, activity toward kinase Stk6
T3 construct: purchased Invitrogen (Carlsbad, Calif.), screening service
T3 sequence (O14965 1-403): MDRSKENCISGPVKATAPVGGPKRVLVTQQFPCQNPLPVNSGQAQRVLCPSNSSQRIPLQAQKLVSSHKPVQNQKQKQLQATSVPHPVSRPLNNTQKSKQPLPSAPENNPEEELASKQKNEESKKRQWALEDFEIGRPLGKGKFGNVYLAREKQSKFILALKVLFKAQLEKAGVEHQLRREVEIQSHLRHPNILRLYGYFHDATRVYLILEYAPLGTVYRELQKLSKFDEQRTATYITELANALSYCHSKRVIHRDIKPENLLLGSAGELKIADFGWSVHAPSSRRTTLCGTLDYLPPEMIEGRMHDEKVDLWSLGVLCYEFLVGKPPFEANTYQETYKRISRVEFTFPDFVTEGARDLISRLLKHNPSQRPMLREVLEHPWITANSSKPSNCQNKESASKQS

Kit = target: T4, Kit (Homo sapiens, UniProt P10721); experiment: AlphaScreen kinase assay, Kit; details: read-out: IC50, activity toward kinase Kit
T4 construct: P1332.N6 BI PTP KIT M552-K948-X COD; His6 (N); made in house; host or cells: E. coli (PTP1B co-expressed)
T4 sequence (P10721 with tags, fused parts or gaps): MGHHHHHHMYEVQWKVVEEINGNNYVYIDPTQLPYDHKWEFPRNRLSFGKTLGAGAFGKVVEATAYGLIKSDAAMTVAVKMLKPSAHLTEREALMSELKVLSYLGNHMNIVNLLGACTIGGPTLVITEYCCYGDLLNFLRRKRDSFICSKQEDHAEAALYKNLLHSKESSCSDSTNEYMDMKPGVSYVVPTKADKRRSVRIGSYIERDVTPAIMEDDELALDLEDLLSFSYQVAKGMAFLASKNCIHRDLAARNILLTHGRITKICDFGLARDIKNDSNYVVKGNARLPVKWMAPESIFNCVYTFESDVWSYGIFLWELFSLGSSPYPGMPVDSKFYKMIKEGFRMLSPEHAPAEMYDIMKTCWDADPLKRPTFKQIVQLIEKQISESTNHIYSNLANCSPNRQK

Pyk2 = target: T5, Pyk2 (Homo sapiens, UniProt Q14289); experiment: AlphaScreen kinase assay, Pyk2; details: read-out: IC50, activity toward kinase Pyk2
T5 construct: purchased Upstate Biotechnology

Gsk3β = Gsk3β (Homo sapiens, UniProt P49841); experiment: AlphaScreen kinase assay, Gsk3β; details: read-out: IC50, activity toward kinase Gsk3β
Chain of Gsk3β (P49841 whole entry): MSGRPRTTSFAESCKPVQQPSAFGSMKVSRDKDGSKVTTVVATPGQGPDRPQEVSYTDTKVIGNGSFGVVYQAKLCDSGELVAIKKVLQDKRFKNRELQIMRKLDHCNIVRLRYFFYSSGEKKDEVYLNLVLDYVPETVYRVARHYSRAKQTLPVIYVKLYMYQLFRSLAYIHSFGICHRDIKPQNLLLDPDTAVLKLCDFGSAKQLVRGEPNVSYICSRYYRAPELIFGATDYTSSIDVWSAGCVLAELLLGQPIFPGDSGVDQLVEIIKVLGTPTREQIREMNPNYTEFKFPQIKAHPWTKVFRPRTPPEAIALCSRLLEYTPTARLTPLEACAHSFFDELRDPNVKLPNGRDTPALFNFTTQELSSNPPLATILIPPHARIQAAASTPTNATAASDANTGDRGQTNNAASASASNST
Method in brief: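 Eight concentrations per compound (1:3 serial dilution of 20 mM DMSO stock) were tested. Read-out: AlphaScreen signal from phospho-antibody acceptor and streptavidin donor beads bound to biotinylated peptide substrate, reduced on kinase inhibition.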

IKK beta = target: T6, IKK beta (Homo sapiens, UniProt O14920); experiment: AlphaScreen kinase assay, IKK beta; details: read-out: IC50, activity toward kinase IKK beta
T6 sequence (O14920 1-756): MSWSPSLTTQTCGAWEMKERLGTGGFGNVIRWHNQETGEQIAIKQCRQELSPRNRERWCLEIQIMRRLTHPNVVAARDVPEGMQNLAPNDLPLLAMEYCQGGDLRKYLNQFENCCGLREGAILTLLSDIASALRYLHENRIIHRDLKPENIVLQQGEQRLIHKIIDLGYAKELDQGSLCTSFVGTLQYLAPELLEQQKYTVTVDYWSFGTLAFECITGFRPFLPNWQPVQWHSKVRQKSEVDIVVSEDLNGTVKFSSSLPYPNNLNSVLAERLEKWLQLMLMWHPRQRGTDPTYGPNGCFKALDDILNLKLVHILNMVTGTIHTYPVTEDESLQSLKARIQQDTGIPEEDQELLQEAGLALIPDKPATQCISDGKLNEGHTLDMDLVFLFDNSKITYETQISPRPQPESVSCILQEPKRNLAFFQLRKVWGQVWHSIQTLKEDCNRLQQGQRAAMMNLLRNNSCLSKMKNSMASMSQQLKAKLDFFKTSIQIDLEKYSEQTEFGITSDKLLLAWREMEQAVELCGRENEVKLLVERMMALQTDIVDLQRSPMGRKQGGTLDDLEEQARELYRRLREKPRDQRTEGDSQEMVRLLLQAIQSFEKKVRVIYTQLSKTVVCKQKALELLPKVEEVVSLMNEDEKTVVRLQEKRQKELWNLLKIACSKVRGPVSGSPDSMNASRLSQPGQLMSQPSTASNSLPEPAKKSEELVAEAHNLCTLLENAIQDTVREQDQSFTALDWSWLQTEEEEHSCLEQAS

Fak = target: T7, Fak (Homo sapiens, UniProt Q05397); experiment: AlphaScreen kinase assay, Fak; details: read-out: IC50, activity toward kinase Fak
T7 construct: P1358.pFastBacHtb FAK S411-Q686-X; His6 with pFastBacHTb leader (TEV site) (N); made in house; host or cells: Sf9 (baculovirus)
T7 sequence (Q05397 411-686): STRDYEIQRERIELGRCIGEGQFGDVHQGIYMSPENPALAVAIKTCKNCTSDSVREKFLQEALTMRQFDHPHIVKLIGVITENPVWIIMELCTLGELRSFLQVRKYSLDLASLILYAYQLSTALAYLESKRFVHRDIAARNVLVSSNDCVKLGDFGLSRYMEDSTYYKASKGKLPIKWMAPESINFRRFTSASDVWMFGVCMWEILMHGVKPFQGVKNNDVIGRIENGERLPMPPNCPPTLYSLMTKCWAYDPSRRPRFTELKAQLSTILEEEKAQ

FGFR1 = target: T8, FGFR1 (Homo sapiens, UniProt P11362, C488A/C584S); experiment: AlphaScreen kinase assay, FGFR1; details: read-out: IC50, activity toward kinase FGFR
T8 construct: P1351.pET N6 BI-PTP FGFR A458-E765-X C488A, C584S; made in house; host or cells: E. coli (PTP1B co-expressed)
T8 sequence (P11362 458-765 C488A/C584S): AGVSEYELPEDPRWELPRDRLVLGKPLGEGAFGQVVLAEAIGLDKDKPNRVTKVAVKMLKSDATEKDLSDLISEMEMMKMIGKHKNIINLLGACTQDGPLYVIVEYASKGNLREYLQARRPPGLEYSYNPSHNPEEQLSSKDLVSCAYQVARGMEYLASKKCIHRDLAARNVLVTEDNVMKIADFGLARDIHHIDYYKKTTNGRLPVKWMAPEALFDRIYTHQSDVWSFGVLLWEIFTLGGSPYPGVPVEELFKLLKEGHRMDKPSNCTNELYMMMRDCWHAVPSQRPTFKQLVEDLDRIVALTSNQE

Src = target: T9, Src (Homo sapiens, UniProt P12931); experiment: AlphaScreen kinase assay, Src; details: read-out: IC50, activity toward kinase Src
T9 construct: P1144. pET-N6 BI-PTP SRC V86-L536-X; made in house

Csk = Csk (Homo sapiens, UniProt P41240); experiment: AlphaScreen kinase assay, Csk; details: read-out: IC50, activity toward kinase Csk
Excerpt: (§1) AlphaScreen assay was used to screen additional kinases. The assay is similarly dependent on the phosphorylation of a peptide substrate. In this assay, an antibody that recognizes phosphorylated substrate is bound to an acceptor bead. The peptide substrate is attached to biotin, which binds to a donor head that contains streptavidin. Thus phosphorylated substrate is bound by antibody and streptavidin, bringing the donor and acceptor heads into close proximity when kinase is not inhibited. The donor produces singlet oxygen which results in emission from the acceptor when they are in close proximity. Conversely, when kinase is inhibited, the donor and acceptor beads are not associated and the emission from the acceptor is reduced.
(§2) AlphaScreen assays were done using compounds dissolved in DMSO to a concentration of 20 mM. The compounds were diluted accordingly to the desired final concentrations in each sample well, using 1:3 serial dilution for a total of 8 concentration points.

Frk = Frk (Homo sapiens, UniProt P42685); experiment: AlphaScreen kinase assay, Frk; details: read-out: IC50, activity toward kinase Frk
Chain of Frk (P42685 whole entry): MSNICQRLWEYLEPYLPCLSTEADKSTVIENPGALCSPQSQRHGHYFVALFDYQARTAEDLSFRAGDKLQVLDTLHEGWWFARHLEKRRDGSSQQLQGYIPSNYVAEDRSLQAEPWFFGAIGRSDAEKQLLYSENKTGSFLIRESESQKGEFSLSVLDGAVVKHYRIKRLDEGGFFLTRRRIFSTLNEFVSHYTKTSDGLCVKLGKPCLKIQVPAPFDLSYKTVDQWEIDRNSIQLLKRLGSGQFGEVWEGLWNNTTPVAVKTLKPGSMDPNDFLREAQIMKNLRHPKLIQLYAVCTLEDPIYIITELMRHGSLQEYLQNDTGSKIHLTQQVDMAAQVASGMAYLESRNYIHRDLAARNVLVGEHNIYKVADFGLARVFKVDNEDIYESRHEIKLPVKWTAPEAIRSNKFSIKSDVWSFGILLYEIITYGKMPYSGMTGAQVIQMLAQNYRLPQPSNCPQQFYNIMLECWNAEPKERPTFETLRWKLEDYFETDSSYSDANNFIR
Excerpt: as §1, §2

Hck = Hck (Homo sapiens, UniProt P08631); experiment: AlphaScreen kinase assay, Hck; details: read-out: IC50, activity toward kinase Hck
Excerpt: as §1, §2

MAP4K4 = MAP4K4 (Homo sapiens, UniProt O95819); experiment: AlphaScreen kinase assay, MAP4K4; details: read-out: IC50, activity toward kinase MAP4K4
Chain of MAP4K4 (O95819 whole entry): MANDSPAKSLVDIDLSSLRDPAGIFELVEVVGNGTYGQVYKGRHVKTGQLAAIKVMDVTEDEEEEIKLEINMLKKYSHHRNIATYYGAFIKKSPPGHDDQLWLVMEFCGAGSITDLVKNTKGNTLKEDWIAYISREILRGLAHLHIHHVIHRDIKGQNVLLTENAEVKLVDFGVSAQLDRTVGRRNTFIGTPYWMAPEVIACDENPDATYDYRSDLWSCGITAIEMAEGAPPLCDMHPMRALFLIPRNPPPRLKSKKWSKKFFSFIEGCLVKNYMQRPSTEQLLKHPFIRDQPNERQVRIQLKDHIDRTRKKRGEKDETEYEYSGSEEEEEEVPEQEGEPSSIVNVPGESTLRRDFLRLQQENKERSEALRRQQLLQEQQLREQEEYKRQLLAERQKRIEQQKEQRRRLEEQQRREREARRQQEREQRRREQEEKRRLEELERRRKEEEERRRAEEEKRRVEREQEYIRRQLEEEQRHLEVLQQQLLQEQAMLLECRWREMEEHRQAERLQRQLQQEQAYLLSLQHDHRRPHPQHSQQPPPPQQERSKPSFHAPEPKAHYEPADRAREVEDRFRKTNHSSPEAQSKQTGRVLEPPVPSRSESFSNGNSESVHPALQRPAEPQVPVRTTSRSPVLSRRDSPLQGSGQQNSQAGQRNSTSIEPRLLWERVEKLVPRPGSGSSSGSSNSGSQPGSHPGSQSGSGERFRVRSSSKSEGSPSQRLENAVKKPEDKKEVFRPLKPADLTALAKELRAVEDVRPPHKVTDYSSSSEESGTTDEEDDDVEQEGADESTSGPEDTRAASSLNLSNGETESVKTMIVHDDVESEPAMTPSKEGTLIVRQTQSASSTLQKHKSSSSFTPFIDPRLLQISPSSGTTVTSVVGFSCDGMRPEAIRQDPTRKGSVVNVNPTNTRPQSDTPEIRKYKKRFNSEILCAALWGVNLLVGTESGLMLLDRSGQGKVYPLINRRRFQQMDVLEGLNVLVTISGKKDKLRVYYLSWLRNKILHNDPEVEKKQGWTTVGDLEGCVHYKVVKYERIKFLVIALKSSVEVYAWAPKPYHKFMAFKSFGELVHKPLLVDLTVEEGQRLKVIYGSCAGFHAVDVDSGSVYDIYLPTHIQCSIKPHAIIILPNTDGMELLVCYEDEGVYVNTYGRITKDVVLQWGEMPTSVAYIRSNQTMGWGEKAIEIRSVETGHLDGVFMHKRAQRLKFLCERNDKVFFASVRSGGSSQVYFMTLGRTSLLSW

PDGFRA = PDGFRA (Homo sapiens, UniProt P16234); experiment: AlphaScreen kinase assay, PDGFRA; details: read-out: IC50, activity toward kinase PDGFRA
Excerpt: as §1, §2

Brk = Brk (Homo sapiens, UniProt Q13882); experiment: AlphaScreen kinase assay, Brk; details: read-out: IC50, activity toward kinase Brk
Excerpt: as §1, §2

Measured: IC50

T1 sequence (P35968 20-1356): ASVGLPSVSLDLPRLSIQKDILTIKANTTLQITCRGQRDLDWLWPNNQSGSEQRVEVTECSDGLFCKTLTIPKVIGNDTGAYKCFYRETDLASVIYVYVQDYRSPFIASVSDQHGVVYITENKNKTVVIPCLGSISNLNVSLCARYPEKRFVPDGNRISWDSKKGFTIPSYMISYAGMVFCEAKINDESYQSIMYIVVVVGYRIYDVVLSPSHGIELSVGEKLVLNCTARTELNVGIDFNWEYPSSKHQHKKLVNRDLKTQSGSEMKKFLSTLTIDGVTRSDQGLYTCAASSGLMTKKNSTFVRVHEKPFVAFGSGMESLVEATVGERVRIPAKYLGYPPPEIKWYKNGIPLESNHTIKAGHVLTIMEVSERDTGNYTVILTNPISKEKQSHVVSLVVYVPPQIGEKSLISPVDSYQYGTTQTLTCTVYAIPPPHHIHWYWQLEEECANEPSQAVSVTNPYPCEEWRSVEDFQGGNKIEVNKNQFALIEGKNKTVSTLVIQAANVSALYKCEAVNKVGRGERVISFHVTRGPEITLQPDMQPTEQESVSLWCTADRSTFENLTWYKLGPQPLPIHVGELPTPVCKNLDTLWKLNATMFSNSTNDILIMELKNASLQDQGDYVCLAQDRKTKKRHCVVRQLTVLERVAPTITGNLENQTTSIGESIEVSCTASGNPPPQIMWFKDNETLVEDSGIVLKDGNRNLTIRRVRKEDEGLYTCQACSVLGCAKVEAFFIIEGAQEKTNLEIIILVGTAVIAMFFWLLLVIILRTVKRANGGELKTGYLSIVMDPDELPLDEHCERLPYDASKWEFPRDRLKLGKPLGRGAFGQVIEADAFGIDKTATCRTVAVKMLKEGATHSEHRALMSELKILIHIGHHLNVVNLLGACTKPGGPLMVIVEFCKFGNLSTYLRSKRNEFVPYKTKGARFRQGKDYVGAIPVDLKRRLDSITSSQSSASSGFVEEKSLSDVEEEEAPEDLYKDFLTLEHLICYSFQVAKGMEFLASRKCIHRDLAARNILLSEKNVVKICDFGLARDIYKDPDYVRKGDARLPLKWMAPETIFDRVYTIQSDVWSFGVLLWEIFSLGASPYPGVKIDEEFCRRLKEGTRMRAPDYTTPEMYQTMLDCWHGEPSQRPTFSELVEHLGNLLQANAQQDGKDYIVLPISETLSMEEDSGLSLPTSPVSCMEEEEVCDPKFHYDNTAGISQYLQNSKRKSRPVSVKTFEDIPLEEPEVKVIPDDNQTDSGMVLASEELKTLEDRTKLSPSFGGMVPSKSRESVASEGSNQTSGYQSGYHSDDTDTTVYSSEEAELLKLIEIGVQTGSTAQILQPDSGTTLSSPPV

Nc1ccc(Sc2c[nH]c3nccc(-c4cccc(CO)c4)c23)cc1 [Compound P-0077]
≤ 10 µM: Kdr | MAPKAPK2 | Stk6

O=C(O)c1ccc(Sc2c[nH]c3ncccc23)nc1 [Compound P-0086]
≤ 10 µM: Kdr | Kit | MAPKAPK2 | Pyk2 | Stk6 | Gsk3β | IKK beta

Cc1cccc(-c2ccnc3[nH]cc(Sc4cccs4)c23)c1 [Compound P-0104]
≤ 10 µM: MAPKAPK2 | Stk6 | Gsk3β

FC(F)(F)c1cccc(-c2ccnc3[nH]cc(Sc4ccncc4)c23)c1 [Compound P-0226]
≤ 10 µM: Kdr | MAPKAPK2 | Gsk3β

CCCS(=O)(=O)Nc1ccc(F)c(C(=O)c2c[nH]c3ncc(Cl)cc23)c1F [Compound P-0933, Propane-1-sulfonic acid [3-(5-chloro-1H-pyrrolo[2,3-b]pyridine-3-carbonyl)-2,4-difluoro-phenyl]-amide]
not listed: Kdr | MAPKAPK2 | Pyk2 | Gsk3β | IKK beta
≤ 10 µM: all other assays above
